Measurements reported in ChEMBL document CHEMBL1201862, “PubChem BioAssay data set” (2004).
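Each compound was tested at five concentrations against cells in 96-well plates for 48 hours. At the GI50, growth is halved.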 The source made the active and inactive calls. Cut-off read from the data, not from the text of the source: active = GI50 up to about 1.1 µM and inactive = higher.

Key:
Test in all cases: NCI-60 cell line screen, 48 h
MOLT-4 = tested on: MOLT-4
NCI-H226 = tested on: NCI-H226
SK-MEL-28 = tested on: SK-MEL-28
NCI/ADR-RES = tested on: NCI/ADR-RES
HOP-62 = tested on: HOP-62
HCT-116 = tested on: HCT-116
U-251 = tested on: U-251
HL-60 = tested on: HL-60
HCC 2998 = tested on: HCC 2998
SK-MEL-5 = tested on: SK-MEL-5
SW-620 = tested on: SW-620
T47D = tested on: T47D
RPMI-8226 = tested on: RPMI-8226
NCI-H522 = tested on: NCI-H522
SR = tested on: SR
NCI-H460 = tested on: NCI-H460
OVCAR-3 = tested on: OVCAR-3
CAKI-1 = tested on: CAKI-1
SNB-75 = tested on: SNB-75

Measured: GI50

COC(=O)CCc1cc(OC)c2oc(-c3ccc(OC)c(OC)c3)c(CO)c2c1
inactive: MOLT-4 95.5 µM | NCI-H226 > 100 µM | SK-MEL-28 > 100 µM | NCI/ADR-RES > 100 µM | HOP-62 > 100 µM | HCT-116 > 100 µM | U-251 > 100 µM | HL-60 > 100 µM | HCC 2998 1.7 µM | SK-MEL-5 > 100 µM | SW-620 > 100 µM | T47D 86.7 µM | RPMI-8226 99.5 µM | NCI-H522 > 100 µM | SR 56 µM | NCI-H460 > 100 µM | OVCAR-3 > 100 µM | CAKI-1 > 100 µM

CC1(C)O[C@@H](CP(c2cccc3ccccc23)c2cccc3ccccc23)[C@H](CP(c2cccc3ccccc23)c2cccc3ccccc23)O1
inactive: MOLT-4 > 100 µM | NCI-H226 > 100 µM | SK-MEL-28 > 100 µM | SNB-75 > 100 µM | NCI/ADR-RES > 100 µM | HOP-62 > 100 µM | HCT-116 > 100 µM | U-251 > 100 µM | HCC 2998 > 100 µM | SK-MEL-5 > 100 µM | SW-620 > 100 µM | T47D > 100 µM | NCI-H522 > 100 µM | SR > 100 µM | NCI-H460 > 100 µM | OVCAR-3 > 100 µM | CAKI-1 > 100 µM

O=C(/C=C(\C(=O)c1cccs1)c1cccs1)c1ccc(C(=O)/C=C(\C(=O)c2cccs2)c2cccs2)cc1
inactive: MOLT-4 > 100 µM | NCI-H226 > 100 µM | SK-MEL-28 > 100 µM | SNB-75 > 100 µM | NCI/ADR-RES > 100 µM | HOP-62 > 100 µM | HCT-116 > 100 µM | U-251 > 100 µM | HL-60 > 100 µM | HCC 2998 > 100 µM | SK-MEL-5 > 100 µM | SW-620 > 100 µM | T47D > 100 µM | RPMI-8226 > 100 µM | SR > 100 µM | NCI-H460 > 100 µM | CAKI-1 > 100 µM

Cc1ccc2c(c1)C(O)(c1ccccc1)CCS2 (stereo not given)
inactive: MOLT-4 15.3 µM | NCI-H226 27.5 µM | SK-MEL-28 37.6 µM | SNB-75 48.2 µM | NCI/ADR-RES 34 µM | HOP-62 33.7 µM | HCT-116 20.8 µM | U-251 21.7 µM | HL-60 28.2 µM | SK-MEL-5 29 µM | SW-620 31 µM | T47D 28.2 µM | NCI-H522 19.7 µM | SR 18.3 µM | NCI-H460 34.8 µM | OVCAR-3 21.3 µM | CAKI-1 22 µM

O=[N+]([O-])C(C(Cl)=C(Cl)Cl)=C(N1CCCCC1)N1CCCCC1
inactive: MOLT-4 33.7 µM | NCI-H226 > 100 µM | SK-MEL-28 > 100 µM | SNB-75 > 100 µM | NCI/ADR-RES > 100 µM | HOP-62 > 100 µM | HCT-116 > 100 µM | U-251 > 100 µM | HL-60 33.4 µM | HCC 2998 > 100 µM | SK-MEL-5 > 100 µM | SW-620 > 100 µM | T47D 45.6 µM | RPMI-8226 84.1 µM | SR 33.8 µM | NCI-H460 > 100 µM | OVCAR-3 62.2 µM | CAKI-1 58.6 µM

O=C(NC(Nc1ccc(F)c(Cl)c1)(C(F)(F)F)C(F)(F)F)C(C(F)(F)F)C(F)(F)F
inactive: MOLT-4 15 µM | NCI-H226 24.1 µM | SK-MEL-28 50.7 µM | NCI/ADR-RES 19.8 µM | HOP-62 > 100 µM | HCT-116 16 µM | U-251 29.2 µM | HL-60 15.6 µM | HCC 2998 > 100 µM | SK-MEL-5 21.4 µM | SW-620 22.1 µM | T47D 44.3 µM | RPMI-8226 20 µM | NCI-H522 16.8 µM | SR 28.2 µM | NCI-H460 36.1 µM | OVCAR-3 26.9 µM | CAKI-1 32.4 µM

O=C(Nc1nnc(-c2ccccc2)o1)C(SC(=S)N1CCCC1)c1ccccc1 (stereo not given)
inactive: MOLT-4 5 µM | NCI-H226 32.1 µM | SK-MEL-28 49 µM | SNB-75 40.8 µM | NCI/ADR-RES 6.67 µM | HOP-62 24.8 µM | HCT-116 25.1 µM | U-251 23.3 µM | HL-60 19.9 µM | SK-MEL-5 17.8 µM | SW-620 49.1 µM | T47D 46.8 µM | RPMI-8226 24.3 µM | NCI-H522 22.3 µM | SR 20.1 µM | NCI-H460 16.4 µM | OVCAR-3 23.5 µM | CAKI-1 29.9 µM

NCCc1ccc(S(=O)(=O)O)cc1[N+](=O)[O-]
inactive: NCI-H226 > 100 µM | SK-MEL-28 > 100 µM | SNB-75 > 100 µM | NCI/ADR-RES > 100 µM | HOP-62 > 100 µM | HCT-116 > 100 µM | U-251 > 100 µM | HL-60 > 100 µM | SK-MEL-5 > 100 µM | SW-620 > 100 µM | T47D > 100 µM | RPMI-8226 > 100 µM | NCI-H522 > 100 µM | SR 4.71 µM | NCI-H460 > 100 µM | OVCAR-3 > 100 µM | CAKI-1 > 100 µM
